Counter-ions that a name gives are not always drawn. Like-named read-outs stand apart in the source and are kept apart here.
Tests used:
blood pressure [1] = experiment: Experiment 6 Dosage-reaction curve, DOCA-NaCl loaded hypertensive rats; format: in vivo, DOCA-sodium chloride loaded hypertensive rats; settings: average of five rats
Source text: (§1) Experiment 6 Dosage-reaction curve: compared with betanidin
(§2) Five spontaneously hypertensive rats (16 weeks old) and five DOCA-sodium chloride loaded hypertensive rats (having been bred for 5 weeks after removing one kidney) were respectively used as one group.
(§3) As the test compounds, Compound 1 and betanidin sulfate, which is a known hypotensive agent, were used.
(§4) The test compounds were respectively dissolved in 0.3% (w/v) CMC aqueous solution and each of the resulting solutions was orally administered to the rats in a dose of 1 ml/100 g. The amounts of the solutions administered were equal per unit weight of rats and the concentrations thereof were varied according to the doses of the compounds indicated in Table 8. The maximum reduction in blood pressure after the administration was measured according to the method of tail artery plethysmography.

blood pressure [2] = experiment: Experiment 6 Dosage-reaction curve, spontaneously hypertensive rats; format: in vivo; settings: SHR, 50 mg/kg oral; average of five rats
Source text: as §1, §2, §3, §4

blood pressure [3] = experiment: Experiment 3 Hypotensive action (maximum reduction in blood pressure); format: in vivo, Wistar-strain rats; settings: read-out: BP: Reduction of blood pressure
male dd-strain mice = settings: mouse, in vivo
[4] = maximum reduction, oral, 5 mg per 100 g rat weight

| Structure (SMILES) | maximum reduction in blood pressure (blood pressure [1]; 1.0 mg/kg oral) [mmHg] | maximum reduction in blood pressure (blood pressure [1]; 10 mg/kg oral) [mmHg] | maximum reduction in blood pressure (blood pressure [1]; 50 mg/kg oral) [mmHg] | maximum reduction in blood pressure (blood pressure [2]) [mmHg] | inhibition in vivo at 50 mg/kg (blood pressure [3]; [4]) [%] | Number of Death I.P. (male dd-strain mice) | Number of Death P.O. (male dd-strain mice) | inhibition in vivo at 50 mg/kg (blood pressure [3]; Rattus norvegicus, po) [%] |
| --- | --- | --- | --- | --- | --- | --- | --- | --- |
| CN=C(NC)NCc1ccccc1 [Betanidin sulfate, betanidin sulfate] | -25 | -34 | -58 | -40 | – | – | – | – |
| CCOc1nc2ccccc2n1C1CCN(CC(O)c2ccc3c(c2)OCO3)CC1 (stereo not shown) [Compound 11, 1-[2-hydroxy-2-(3,4-methylenedioxyphenyl)-1-ethyl]-4-(2-ethoxy-1-benzimidazolinyl)-piperidine] | – | – | – | – | 6 to 10 | 0 | 0 | – |
| O=c1[nH]c2ccccc2n1C1=CCN(CCc2ccc3c(c2)OCO3)CC1 [Compound 12, 1-[2-(3,4-methylenedioxyphenyl)-1-ethyl]-4-(2-keto-1-benzimidazolinyl)-1,2,5,6-tetrahydropyridine] | – | – | – | – | 6 to 10 | 0 | 0 | – |
| COc1ccc(C(OC(C)=O)C(C)N2CCC(n3c(=O)n(C(C)=O)c4ccccc43)CC2)cc1OC (stereo not shown) [Compound 32, 1-[3-acetoxy-3-(3,4-dimethoxyphenyl)-2-propyl]-4-(3-acetyl-2-keto-1-benzimidazolinyl)-piperidine] | – | – | – | – | > 11 | 0 | 0 | – |
| COc1ccc(C(OC(C)=O)C(C)N2CCC(n3c(=O)[nH]c4ccccc43)CC2)cc1OC (stereo not shown) [Compound 34, 1-[3-acetoxy-3-(3,4-dimethoxyphenyl)-2-propyl]-4-(2-keto-1-benzimidazolinyl)-piperidine] | – | – | – | – | – | 0 | 0 | > 11 |
| CCOC(=O)n1c(=O)n(C2CCN(CC(=O)c3ccc(OC)c(OC)c3)CC2)c2ccccc21 [Compound 35, 1-[2-oxo-2-(3,4-dimethoxyphenyl)-1-ethyl]-4-(2-keto-3-ethoxycarbonyl-1-benzimidazolinyl)-piperidine] | – | – | – | – | > 11 | 0 | 0 | – |
